We go through two compounds from patent publication US9145372B2, “Pyridazine derivatives, compositions and methods for treating cognitive impairment” (AGENEBIO, INC., priority 2010, dated 2015).

The target in test [1] is T1, GABAA α1 receptors (α1β2γ2) (Homo sapiens, UniProt P14867+P18507).
T1 construct: expressed in transfected cells; host or cells: Xenopus laevis oocytes injected with cDNAs
T1 sequence (P14867 28-456): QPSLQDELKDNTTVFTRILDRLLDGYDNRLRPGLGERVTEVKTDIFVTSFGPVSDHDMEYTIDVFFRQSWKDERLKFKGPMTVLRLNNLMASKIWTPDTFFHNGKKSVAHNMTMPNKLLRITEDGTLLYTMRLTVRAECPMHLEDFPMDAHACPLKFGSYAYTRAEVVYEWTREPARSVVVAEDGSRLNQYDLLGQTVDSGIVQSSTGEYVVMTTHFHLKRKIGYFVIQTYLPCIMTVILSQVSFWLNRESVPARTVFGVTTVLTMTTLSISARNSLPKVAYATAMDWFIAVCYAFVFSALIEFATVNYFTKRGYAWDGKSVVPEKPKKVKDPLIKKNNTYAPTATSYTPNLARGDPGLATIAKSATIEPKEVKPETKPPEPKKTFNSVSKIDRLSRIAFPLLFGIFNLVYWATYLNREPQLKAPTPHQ
T1 sequence (P47870 25-512 partner limits assumed): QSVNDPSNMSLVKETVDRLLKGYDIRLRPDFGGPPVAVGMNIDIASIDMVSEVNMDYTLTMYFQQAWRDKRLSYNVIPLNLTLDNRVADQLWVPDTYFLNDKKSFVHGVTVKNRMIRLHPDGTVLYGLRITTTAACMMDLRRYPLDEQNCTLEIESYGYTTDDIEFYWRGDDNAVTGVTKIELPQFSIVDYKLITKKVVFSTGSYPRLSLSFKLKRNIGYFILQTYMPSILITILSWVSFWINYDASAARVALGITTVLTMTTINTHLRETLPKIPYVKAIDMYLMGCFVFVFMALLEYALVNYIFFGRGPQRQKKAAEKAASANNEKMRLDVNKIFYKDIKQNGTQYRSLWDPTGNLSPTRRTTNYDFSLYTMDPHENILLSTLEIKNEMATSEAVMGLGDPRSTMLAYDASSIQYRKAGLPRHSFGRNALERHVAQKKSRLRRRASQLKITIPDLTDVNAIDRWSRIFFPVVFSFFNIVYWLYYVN
T1 sequence (P18507 40-467 limits assumed): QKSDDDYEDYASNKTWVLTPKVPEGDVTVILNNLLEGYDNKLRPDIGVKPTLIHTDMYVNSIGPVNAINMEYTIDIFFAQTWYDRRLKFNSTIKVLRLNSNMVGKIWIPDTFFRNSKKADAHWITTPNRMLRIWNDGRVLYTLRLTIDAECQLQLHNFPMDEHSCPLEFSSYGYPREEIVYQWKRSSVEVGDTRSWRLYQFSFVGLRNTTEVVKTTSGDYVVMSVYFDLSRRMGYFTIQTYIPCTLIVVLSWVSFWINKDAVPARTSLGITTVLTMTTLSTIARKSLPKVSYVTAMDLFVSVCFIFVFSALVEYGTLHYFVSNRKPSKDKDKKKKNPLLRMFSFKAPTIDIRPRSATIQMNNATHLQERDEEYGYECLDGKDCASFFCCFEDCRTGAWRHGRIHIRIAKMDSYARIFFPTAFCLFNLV
Put plainly: GABA-gated Cl- current in Xenopus oocytes expressing GABAA α1β2γ2 (TEVC), off-target activity. Format: cell-based. The following applies: concentration response 0.01-100 μM; FIGS. 1(A)-(D). An excerpt: (§1) Step 1: Establish Clones of GABAAR Subunits (α5, β3, γ2, α1, α2 and α3) and Prepare the Corresponding cRNAs: Human clones of GABAA-R α5, β3, γ2, α1, α2 and α3 subunits are obtained from commercial resources (e.g., OriGene, http://www.origene.com and Genescript, http://www.genescript.com). These clones are engineered into pRC, pCDM, pcDNA, and pBluescript KSM vector (for oocyte expression) or other equivalent expression vectors. Conventional transfection agents (e.g., FuGene, Lipofectamine 2000, or others) are used to transiently transfect host cells.
Xenopus oocytes were isolated according to previously published procedures (see, e.g., Goldin et al. Methods Enzymol. 207:266-279 (1992)). The isolated Xenopus oocytes were injected with GABAAR cDNAs (1:1:1 ratio for a total volume of 1 ng of α1βγ2 or α5β3γ2) cloned into mammalian expression vectors. In particular, α1, β2, γ2 were cloned into pcDNA3.1. and α5 and β3 were cloned into pcDNA3.1 myc-His. Vectors were verified by partial sequencing (DNA Core Facility, University of Southern California, USA). After injection, oocytes were stored in incubation medium (Modified Barth's Saline (MBS) supplemented with 2 mM sodium pyruvate, 0.5 mM theophylline and 50 mg/L gentamycin), in petri dishes (VWR, San Dimas, Calif.). All solutions were sterilized by passage through 0.22 μM filters. […] Oocytes were used in experiments for up to 5 days after injection.
A high-throughput two-electrode voltage clamp (TEVC) system (OpusXpress A6000; Molecular Devices, Union City, Calif.), which automates the impalement of oocytes, fluid delivery and current recording from 8 oocytes in parallel, was used to carry out all electrophysiological recordings.
Xenopus Oocytes expressing GABAA-R α5β3γ2 or α1β2γ2 subtype, as prepared in section (A) above, were placed in 8 chambers of OpusXpress and perfused by MBS at 3 mL/min. Glass electrodes back-filled with 3 M KCl (0.5-3 megaohms) were used. Membrane potential of oocytes was voltage-clamped at −60 mV. Oocytes with holding current larger than 0.5 μA were discarded.
Data for each experimental point were obtained from 4 or more Xenopus oocytes and from at least two different frogs. The n refers to the number of Xenopus oocytes tested. Results are expressed as mean±SEM. […] Prism (GraphPAD Software, San Diego, Calif.) and Excel were used to perform curve fitting and statistical analyses.

Test [2] has as its target T2, GABAA α5β3γ2 subtype receptor (Homo sapiens, UniProt P18507+P31644).
T2 construct: myc-His (vector-encoded); expressed in transfected cells; host or cells: Xenopus laevis oocytes injected with cDNAs
T2 sequence (P31644 32-462): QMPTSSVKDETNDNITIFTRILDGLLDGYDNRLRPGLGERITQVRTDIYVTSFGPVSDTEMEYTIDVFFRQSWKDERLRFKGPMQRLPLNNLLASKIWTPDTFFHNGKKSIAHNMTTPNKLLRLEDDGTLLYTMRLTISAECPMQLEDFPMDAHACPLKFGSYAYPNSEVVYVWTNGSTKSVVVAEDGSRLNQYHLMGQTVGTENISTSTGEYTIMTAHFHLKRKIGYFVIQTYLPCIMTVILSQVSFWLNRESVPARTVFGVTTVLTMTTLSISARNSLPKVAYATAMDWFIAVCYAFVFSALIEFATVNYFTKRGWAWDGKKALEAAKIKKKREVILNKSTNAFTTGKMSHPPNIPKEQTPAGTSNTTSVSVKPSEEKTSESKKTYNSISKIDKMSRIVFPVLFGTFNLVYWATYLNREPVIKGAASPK
T2 sequence (P28472 26-473 partner): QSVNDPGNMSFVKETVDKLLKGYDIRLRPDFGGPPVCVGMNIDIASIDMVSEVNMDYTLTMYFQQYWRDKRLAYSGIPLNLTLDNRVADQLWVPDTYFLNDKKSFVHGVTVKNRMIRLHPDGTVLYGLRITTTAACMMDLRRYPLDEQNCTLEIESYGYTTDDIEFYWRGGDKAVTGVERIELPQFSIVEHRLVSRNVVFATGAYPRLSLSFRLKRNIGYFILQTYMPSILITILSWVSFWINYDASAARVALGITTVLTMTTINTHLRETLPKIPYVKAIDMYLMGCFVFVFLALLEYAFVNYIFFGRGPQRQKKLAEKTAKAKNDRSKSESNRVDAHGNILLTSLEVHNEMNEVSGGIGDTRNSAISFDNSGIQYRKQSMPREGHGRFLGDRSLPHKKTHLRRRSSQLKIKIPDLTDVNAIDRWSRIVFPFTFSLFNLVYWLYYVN
T2 sequence (P18507 40-467 limits assumed): T1 sequence (P18507 40-467 limits assumed)
Put plainly: GABA-gated Cl- current potentiation in Xenopus oocytes expressing GABAA α5β3γ2 (TEVC). Format: cell-based. The following applies: for positive allosteric modulation of GABA at GABAA α5 receptors: concentration response 0.01-100 μM, FIGS. 1(A)-(D); for activation at 1 µM: read-out: GABA α5 EC50 % potentiation.
From the text: as §1
Adult female Xenopus laevis frogs were purchased from Nasco (Fort Atkinson, Wis.). […] All chemicals used were of reagent grade. […] Stock solutions of Diazepam, Flumazenil and compounds of the present invention were prepared in dimethyl sulfoxide (DMSO) and then diluted to an appropriate concentration with the extracellular solution just before use. To avoid adverse effects from DMSO exposure, the final concentration of DMSO was not higher than 0.3% (v/v).
Upon conclusion of compound testing and successful washout, a 1.0 μM Diazepam was tested and used for comparative activity on the two GABAAR subtypes.
Other concentrations of the test compound may also be tested following the same protocol.
Results are expressed as mean±SEM.

For the compound `COC(=O)c1coc(-c2c(-c3ccccc3)cnnc2-c2cccc(Cl)c2)n1` [Compound 27], the “positive allosteric modulation at GABAA α1 receptors” value in test [1] was “markedly reduced positive allosteric modulation”. Also, in test [2], the “positive allosteric modulation of GABA at GABAA α5 receptors” value was “strong positive allosteric modulation” and the activation at 1 µM stood at 30.5%.
The matching figures for `COC(=O)c1coc(-c2c(-c3ccccc3)cnnc2-c2cccc(OC)c2)n1` [Compound 29]: “markedly reduced positive allosteric modulation”, “strong positive allosteric modulation” and 12.3%.
